We go through eleven molecules from ChEMBL document CHEMBL1201862, “PubChem BioAssay data set” (2004).

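Interpolation was linear, between the two tested concentrations surrounding the appropriate level; five concentrations were tested over 48 hours in 96-well plates. The concentration for 50% growth inhibition is given as GI50.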 Active and inactive are the calls of the source. Rule as the data show it: active = GI50 up to about 1.1 µM and inactive = higher.

What all share (assay): NCI tumour cell line growth inhibition, 48 h
The test system of experiment [1] is HCC 2998.
For experiment [2], the system named is CCRF-CEM.
For experiment [3], the system named is SR.
Experiment [4] concerns SK-MEL-5.
In experiment [5] the test system is HCT-116.
In experiment [6] the test system is SK-MEL-2.
In experiment [7] the test system is EKVX.
The subject of experiment [8] is K562.
Experiment [9] deals with MOLT-4.
For experiment [10], the system named is ACHN.
For experiment [11], the system named is LOX IMVI.
Experiment [12] concerns SK-OV-3.
The subject of experiment [13] is PC-3.
In experiment [14] the test system is SN12C.
Experiment [15] concerns HOP-62.
In experiment [16] the test system is CAKI-1.
Experiment [17] has as its system SW-620.
Experiment [18] relates to HOP-92.
The test system of experiment [19] is SF-539.
In experiment [20] the test system is HL-60.

As to `Cc1ccc(Cc2nn(C)c(=O)n2-n2cccc2)cc1`, the GI50 in experiment [1], in experiment [2], in [3], in experiment [4], in experiment [5] and in experiment [6] was > 100 µM (inactive) each time. Also, the GI50 in experiment [7], in experiment [8], in experiment [9], in experiment [10], in [11] and in [12] was > 100 µM (inactive) in each case. Besides, the GI50 in experiment [13], in [14], in [15], in experiment [16] and in [17] was > 100 µM (inactive) throughout.
Take `CC1(C)[C@@H](Cn2nnc3c(N)ncnc32)CC[C@@]1(C)CO`: the GI50 in experiment [1] is 12.6 µM (inactive); in experiment [2], > 100 µM (inactive); in experiment [4] it was 55 µM (inactive); in experiment [5] it was > 100 µM (inactive); in experiment [6], > 100 µM (inactive); in [7] it was > 100 µM (inactive). For the same molecule, the GI50 is > 100 µM (inactive) in experiment [8]; < 0.01 µM (active) in experiment [9]; > 100 µM (inactive) in experiment [18]; > 100 µM (inactive) in experiment [10]; > 100 µM (inactive) in experiment [11]; > 100 µM (inactive) in experiment [12]. Besides, the GI50 in [13], in [19], in experiment [14], in experiment [15], in [16] and in experiment [17] was > 100 µM (inactive) in each case.
Regarding `Cc1cc(Cc2c(C)c(C)c(Cc3cc(C)cc(C(C)(C)C)c3O)c(C)c2C)c(O)c(C(C)(C)C)c1`, the GI50 in experiment [3] was 1.21 µM (inactive); in experiment [4], > 100 µM (inactive); in [5], > 100 µM (inactive); in experiment [6], > 100 µM (inactive); in [7], > 100 µM (inactive); in experiment [8] it was > 100 µM (inactive). For the same molecule, the GI50 in experiment [9] is 1.56 µM (inactive); in experiment [20], 14.4 µM (inactive); in experiment [18] it was > 100 µM (inactive); in [10], > 100 µM (inactive); in [11], > 100 µM (inactive); in experiment [12], > 100 µM (inactive). In addition, the GI50 in experiment [13], in experiment [19], in experiment [14], in [15], in experiment [16] and in experiment [17] was > 100 µM (inactive) throughout.
Turning to `COc1cc([C@@]23OC[C@@H]4[C@@H](OC[C@@H]42)c2cc4c(cc23)OCO4)cc(OC)c1OC`, the GI50 in [1], in experiment [2], in experiment [3], in experiment [4], in experiment [5] and in [6] was < 0.01 µM (active) in each case. Further, the GI50 in experiment [8] is < 0.0208 µM (active); in [9] it was < 0.01 µM (active); in experiment [20], < 0.01 µM (active); in experiment [10] it was < 0.0127 µM (active); in [11], < 0.01 µM (active); in [12], < 0.01 µM (active). Besides, the GI50 in experiment [13] was < 0.01 µM (active); in experiment [19], < 0.01 µM (active); in experiment [15], < 0.01 µM (active); in [16], < 0.0157 µM (active); in experiment [17] it was < 0.01 µM (active).
As to `CO/C(C)=N/CCC1=CCCCC1`, the GI50 is 52.5 µM (inactive) in experiment [1]; 0.104 µM (active) in experiment [3]; > 100 µM (inactive) in experiment [4]; > 100 µM (inactive) in experiment [5]; > 100 µM (inactive) in [6]; > 100 µM (inactive) in [7]. Besides, the GI50 in [8] is 93.1 µM (inactive); in [9] it was > 100 µM (inactive); in experiment [18] it was > 100 µM (inactive); in [10] it was > 100 µM (inactive); in experiment [12], > 100 µM (inactive); in [13] it was > 100 µM (inactive). For the same molecule, the GI50 in [15], in experiment [16] and in [17] was > 100 µM (inactive) in each case.
Consider `O=C1Oc2ccccc2N/C1=C/C(=O)c1ccc([N+](=O)[O-])cc1`, for which the GI50 in [1] was > 100 µM (inactive); in experiment [2], 61 µM (inactive); in experiment [3], > 100 µM (inactive); in experiment [4], > 100 µM (inactive); in experiment [5], > 100 µM (inactive); in experiment [6] it was > 100 µM (inactive). Moreover, the GI50 was > 100 µM (inactive) in experiment [7]; > 100 µM (inactive) in experiment [8]; > 100 µM (inactive) in experiment [9]; > 100 µM (inactive) in [10]; > 100 µM (inactive) in experiment [12]; 80.7 µM (inactive) in experiment [13]. Besides, the GI50 in experiment [19], in experiment [14], in experiment [15] and in [16] was > 100 µM (inactive) throughout.
For `Cc1cc(O)c(C(C)C)cc1C(=S)Nc1ccc(Cl)cc1`, the GI50 in experiment [1] is 15.1 µM (inactive); in experiment [2] it was 3.66 µM (inactive); in [3], 4.95 µM (inactive); in experiment [4] it was 11.5 µM (inactive); in experiment [5], 13 µM (inactive); in [6] it was 14.1 µM (inactive). Moreover, the GI50 in experiment [7] is 12.7 µM (inactive); in [8], 4.35 µM (inactive); in experiment [9], 3.4 µM (inactive); in experiment [20], 7.05 µM (inactive); in [10] it was 13 µM (inactive); in experiment [11], 11.2 µM (inactive). The GI50 in experiment [12] is 21.9 µM (inactive); in [13], 11 µM (inactive); in experiment [19], 14.3 µM (inactive); in experiment [15] it was 18.5 µM (inactive); in experiment [16], 14.6 µM (inactive); in experiment [17], 14.3 µM (inactive).
In the case of `c1ccc(Nc2nnc(-c3ccccc3Nc3ccccc3-c3nnc(Nc4ccccc4)s3)s2)cc1`, the GI50 in [1], in experiment [2], in [4], in experiment [5], in experiment [6] and in experiment [7] was > 100 µM (inactive) throughout. For the same molecule, the GI50 is > 100 µM (inactive) in experiment [8]; 61.7 µM (inactive) in experiment [9]; > 100 µM (inactive) in experiment [20]; 0.703 µM (active) in experiment [18]; > 100 µM (inactive) in experiment [10]; > 100 µM (inactive) in experiment [11]. Moreover, the GI50 in experiment [13], in experiment [19], in experiment [15] and in experiment [17] was > 100 µM (inactive) in each case.
With `CCC(C#N)NCc1cccc(CNC(C#N)CC)c1` (stereo not given), the GI50 in experiment [1], in experiment [2], in experiment [4], in experiment [5], in experiment [6] and in experiment [7] was > 100 µM (inactive) throughout. The GI50 in experiment [8], in experiment [9], in [20], in [18], in [10] and in experiment [11] was > 100 µM (inactive) throughout. Besides, the GI50 in [12] is 18.4 µM (inactive); in experiment [13], > 100 µM (inactive); in experiment [19] it was > 100 µM (inactive); in experiment [14], > 100 µM (inactive); in experiment [16], > 100 µM (inactive); in experiment [17], > 100 µM (inactive).
Consider `CC[N+](CC)(CC)/C(=N\S(=O)(=O)c1ccc(Cl)cc1)[N-]S(=O)(=O)c1cc(C)c(Cl)cc1S`, for which the GI50 in experiment [1] was 73.5 µM (inactive); in experiment [2], 59.3 µM (inactive); in experiment [4], > 100 µM (inactive); in experiment [5], 26.5 µM (inactive); in [6], > 100 µM (inactive); in experiment [7], > 100 µM (inactive). Further, the GI50 in experiment [8] was 6.65 µM (inactive); in experiment [9], 2.51 µM (inactive); in experiment [20] it was 53.8 µM (inactive); in [18] it was 24.9 µM (inactive); in [10], > 100 µM (inactive); in [11], > 100 µM (inactive). The GI50 is 62.8 µM (inactive) in experiment [12]; 55.8 µM (inactive) in experiment [13]; 57.3 µM (inactive) in experiment [19]; 52 µM (inactive) in [15]; > 100 µM (inactive) in experiment [16]; 70.3 µM (inactive) in [17].
`COc1ccccc1N1CCN(CCCN2C(C(=O)c3ccccc3)=C(O)c3c(C)cc(C)nc3S2(=O)=O)CC1`: the GI50 in [2] was 52.5 µM (inactive); in [3], 46.2 µM (inactive); in experiment [4], 51.9 µM (inactive); in experiment [5], 61.2 µM (inactive); in experiment [6] it was > 100 µM (inactive); in experiment [7], 37 µM (inactive). Further, the GI50 in experiment [8] was 56.5 µM (inactive); in experiment [9], 24.8 µM (inactive); in [20], 79.4 µM (inactive); in experiment [18] it was 22.6 µM (inactive); in experiment [10], 89.1 µM (inactive); in experiment [11] it was 13.4 µM (inactive). In addition, the GI50 in experiment [12] was 85.9 µM (inactive); in experiment [13] it was > 100 µM (inactive); in experiment [19], > 100 µM (inactive); in experiment [14], 63 µM (inactive); in experiment [15] it was 77.8 µM (inactive); in experiment [16], 79.6 µM (inactive). Also, the GI50 in experiment [17] was 89.7 µM (inactive).
